According to article PMC7347136 (PLoS ONE, 2020):

Columns and labels:
Experiment in all cases: Carna kinase panel screen
Assay type in all cases: biochemical
Details in all cases: read-out: % Inhibition ± SD
[1] = target: T1, ABL (Homo sapiens, UniProt P00519)
T1 construct: purchased Carna Biosciences
Experimental: (§1) IC50 values were determined from a 10-point concentration curve using ATP concentrations approximating Km values. […] The percentage inhibition of each test solution was calculated, which allowed the IC50 value to be determined from concentration versus percentage inhibition curves by fitting to a four parameter logistic curve.

[2] = target: T2, ABL[T315I] (Homo sapiens, UniProt P00519, T315I)
T2 construct: purchased Carna Biosciences
Experimental: as §1

[3] = target: T3, AKT1 (Homo sapiens, UniProt P31749)
T3 construct: purchased Carna Biosciences
T3 sequence (P31749 whole entry): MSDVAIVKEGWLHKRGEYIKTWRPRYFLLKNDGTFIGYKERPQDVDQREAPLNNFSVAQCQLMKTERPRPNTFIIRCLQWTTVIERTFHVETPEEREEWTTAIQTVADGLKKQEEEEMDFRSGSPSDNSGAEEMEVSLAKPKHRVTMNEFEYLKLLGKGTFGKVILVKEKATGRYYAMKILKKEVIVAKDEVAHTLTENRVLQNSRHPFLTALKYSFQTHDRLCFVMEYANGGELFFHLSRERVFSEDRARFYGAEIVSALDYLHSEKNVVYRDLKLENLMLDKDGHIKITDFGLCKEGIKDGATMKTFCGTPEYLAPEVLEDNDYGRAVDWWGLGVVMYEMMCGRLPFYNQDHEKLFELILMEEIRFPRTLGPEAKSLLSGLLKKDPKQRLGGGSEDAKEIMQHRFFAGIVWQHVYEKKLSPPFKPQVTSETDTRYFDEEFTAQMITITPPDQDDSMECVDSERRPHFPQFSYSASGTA
Experimental: as §1

[4] = target: T4, AXL (Homo sapiens, UniProt P30530)
T4 construct: purchased Carna Biosciences
Experimental: as §1

[5] = target: T5, BMX (Homo sapiens, UniProt P51813)
T5 construct: purchased Carna Biosciences
Experimental: as §1

[6] = target: T6, BRAF[V600E] (Homo sapiens, UniProt P15056, V600E)
T6 construct: purchased Carna Biosciences
Experimental: as §1

[7] = target: T7, CDC2 (Homo sapiens, UniProt P06493)
T7 construct: purchased Carna Biosciences
Experimental: as §1

[8] = target: T8, CDK3 (Homo sapiens, UniProt Q00526)
T8 construct: purchased Carna Biosciences
Experimental: as §1

[9] = target: T9, CGK2 (Homo sapiens, UniProt Q13237)
T9 construct: purchased Carna Biosciences
Experimental: as §1

[10] = target: T10, CHK1 (Homo sapiens, UniProt O14757)
T10 construct: purchased Carna Biosciences
Experimental: as §1

[11] = target: T11, CRIK (Homo sapiens, UniProt O14578)
T11 construct: purchased Carna Biosciences
Experimental: as §1

[12] = target: T12, CTK (Homo sapiens, UniProt P42679)
T12 construct: purchased Carna Biosciences
Experimental: as §1

[13] = target: T13, CaMK2a (Homo sapiens, UniProt Q9UQM7)
T13 construct: purchased Carna Biosciences
Experimental: as §1

[14] = target: T14, EphA1 (Homo sapiens, UniProt P21709)
T14 construct: purchased Carna Biosciences
Experimental: as §1

[15] = target: T15, EphA2 (Homo sapiens, UniProt P29317)
T15 construct: purchased Carna Biosciences
T15 sequence (P29317 24-976): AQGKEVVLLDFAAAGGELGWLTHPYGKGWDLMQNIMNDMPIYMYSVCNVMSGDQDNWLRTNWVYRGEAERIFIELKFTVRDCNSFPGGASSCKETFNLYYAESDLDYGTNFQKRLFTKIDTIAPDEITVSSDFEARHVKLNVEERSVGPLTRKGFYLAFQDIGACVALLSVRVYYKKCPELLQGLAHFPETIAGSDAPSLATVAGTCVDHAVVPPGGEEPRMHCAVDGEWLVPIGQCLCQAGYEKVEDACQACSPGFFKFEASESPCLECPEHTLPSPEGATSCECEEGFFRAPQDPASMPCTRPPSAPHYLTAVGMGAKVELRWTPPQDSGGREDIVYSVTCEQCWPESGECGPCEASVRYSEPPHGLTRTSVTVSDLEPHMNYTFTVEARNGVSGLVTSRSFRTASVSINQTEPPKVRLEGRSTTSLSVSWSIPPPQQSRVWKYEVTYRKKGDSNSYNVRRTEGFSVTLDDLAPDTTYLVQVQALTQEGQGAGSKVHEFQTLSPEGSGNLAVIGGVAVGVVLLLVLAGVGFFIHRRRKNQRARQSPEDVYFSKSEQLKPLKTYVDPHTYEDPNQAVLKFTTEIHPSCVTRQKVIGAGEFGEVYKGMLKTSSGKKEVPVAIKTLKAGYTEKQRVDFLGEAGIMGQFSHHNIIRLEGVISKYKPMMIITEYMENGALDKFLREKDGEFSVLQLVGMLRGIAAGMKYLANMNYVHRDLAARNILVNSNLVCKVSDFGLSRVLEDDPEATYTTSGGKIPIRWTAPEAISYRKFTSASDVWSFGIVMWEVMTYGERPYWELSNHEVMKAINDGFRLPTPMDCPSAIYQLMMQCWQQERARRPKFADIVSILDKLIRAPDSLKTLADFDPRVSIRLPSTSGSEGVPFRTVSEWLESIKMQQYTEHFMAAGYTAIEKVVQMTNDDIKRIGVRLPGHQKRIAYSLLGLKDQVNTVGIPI
Experimental: as §1

[16] = target: T16, EphA5 (Homo sapiens, UniProt P54756)
T16 construct: purchased Carna Biosciences
Experimental: as §1

[17] = target: T17, FAK (Homo sapiens, UniProt Q05397)
T17 construct: purchased Carna Biosciences
T17 sequence (Q05397 whole entry): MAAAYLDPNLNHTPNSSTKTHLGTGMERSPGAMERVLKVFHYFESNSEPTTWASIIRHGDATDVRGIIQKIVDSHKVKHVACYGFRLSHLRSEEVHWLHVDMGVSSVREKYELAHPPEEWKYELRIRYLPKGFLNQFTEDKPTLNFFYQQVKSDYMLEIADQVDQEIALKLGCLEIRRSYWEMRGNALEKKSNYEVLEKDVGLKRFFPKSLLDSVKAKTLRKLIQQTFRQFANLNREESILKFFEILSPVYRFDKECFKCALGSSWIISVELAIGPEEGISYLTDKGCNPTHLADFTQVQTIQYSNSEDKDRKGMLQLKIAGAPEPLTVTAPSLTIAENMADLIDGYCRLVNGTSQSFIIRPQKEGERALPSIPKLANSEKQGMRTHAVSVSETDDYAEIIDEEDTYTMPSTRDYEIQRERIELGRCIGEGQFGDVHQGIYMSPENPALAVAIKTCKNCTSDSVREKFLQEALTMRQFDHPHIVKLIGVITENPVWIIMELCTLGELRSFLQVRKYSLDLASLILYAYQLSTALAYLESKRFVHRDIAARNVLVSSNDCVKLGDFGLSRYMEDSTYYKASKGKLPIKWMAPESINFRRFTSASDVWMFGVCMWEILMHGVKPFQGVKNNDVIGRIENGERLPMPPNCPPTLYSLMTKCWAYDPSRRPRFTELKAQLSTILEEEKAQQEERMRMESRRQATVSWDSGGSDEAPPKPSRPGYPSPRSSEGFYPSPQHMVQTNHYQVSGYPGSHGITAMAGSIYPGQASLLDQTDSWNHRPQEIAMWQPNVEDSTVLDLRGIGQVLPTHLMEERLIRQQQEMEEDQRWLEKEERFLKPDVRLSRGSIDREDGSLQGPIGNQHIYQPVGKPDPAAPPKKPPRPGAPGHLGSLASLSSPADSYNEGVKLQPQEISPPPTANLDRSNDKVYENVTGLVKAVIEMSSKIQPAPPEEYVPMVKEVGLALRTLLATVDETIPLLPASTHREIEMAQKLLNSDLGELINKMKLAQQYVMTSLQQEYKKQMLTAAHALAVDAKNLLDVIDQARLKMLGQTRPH
Experimental: as §1

[18] = target: T18, FER (Homo sapiens, UniProt P16591)
T18 construct: purchased Carna Biosciences
T18 sequence (P16591 whole entry): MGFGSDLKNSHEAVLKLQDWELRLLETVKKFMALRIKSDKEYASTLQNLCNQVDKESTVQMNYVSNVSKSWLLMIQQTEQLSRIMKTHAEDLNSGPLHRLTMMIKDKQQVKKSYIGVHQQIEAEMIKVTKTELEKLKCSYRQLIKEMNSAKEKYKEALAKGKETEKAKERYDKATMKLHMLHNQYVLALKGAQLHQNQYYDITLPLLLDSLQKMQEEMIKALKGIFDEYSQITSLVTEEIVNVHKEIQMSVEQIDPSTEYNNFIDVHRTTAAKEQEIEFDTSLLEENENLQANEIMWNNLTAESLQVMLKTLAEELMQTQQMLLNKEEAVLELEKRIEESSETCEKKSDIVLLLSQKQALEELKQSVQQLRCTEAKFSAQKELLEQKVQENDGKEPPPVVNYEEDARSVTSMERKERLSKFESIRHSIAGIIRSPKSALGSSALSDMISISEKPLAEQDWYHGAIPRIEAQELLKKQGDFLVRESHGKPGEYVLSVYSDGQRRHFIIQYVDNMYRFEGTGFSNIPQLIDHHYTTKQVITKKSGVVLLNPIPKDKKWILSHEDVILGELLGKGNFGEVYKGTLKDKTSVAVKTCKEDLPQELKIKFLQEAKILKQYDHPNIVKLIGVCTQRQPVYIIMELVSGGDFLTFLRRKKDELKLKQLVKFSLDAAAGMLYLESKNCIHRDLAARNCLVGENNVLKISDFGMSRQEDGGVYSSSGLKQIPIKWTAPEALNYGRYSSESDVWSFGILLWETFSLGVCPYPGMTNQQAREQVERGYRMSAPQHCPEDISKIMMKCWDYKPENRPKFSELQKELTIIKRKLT
Experimental: as §1

[19] = target: T19, FLT4 (Homo sapiens, UniProt P35916)
T19 construct: purchased Carna Biosciences
Experimental: as §1

[20] = target: T20, JNK2 (Homo sapiens, UniProt P45984)
T20 construct: purchased Carna Biosciences
Experimental: as §1

[21] = target: T21, MAP3K3 (Homo sapiens, UniProt Q99759)
T21 construct: purchased Carna Biosciences
Experimental: as §1

[22] = target: T22, MAPKAPK3 (Homo sapiens, UniProt Q16644)
T22 construct: purchased Carna Biosciences
T22 sequence (Q16644 whole entry): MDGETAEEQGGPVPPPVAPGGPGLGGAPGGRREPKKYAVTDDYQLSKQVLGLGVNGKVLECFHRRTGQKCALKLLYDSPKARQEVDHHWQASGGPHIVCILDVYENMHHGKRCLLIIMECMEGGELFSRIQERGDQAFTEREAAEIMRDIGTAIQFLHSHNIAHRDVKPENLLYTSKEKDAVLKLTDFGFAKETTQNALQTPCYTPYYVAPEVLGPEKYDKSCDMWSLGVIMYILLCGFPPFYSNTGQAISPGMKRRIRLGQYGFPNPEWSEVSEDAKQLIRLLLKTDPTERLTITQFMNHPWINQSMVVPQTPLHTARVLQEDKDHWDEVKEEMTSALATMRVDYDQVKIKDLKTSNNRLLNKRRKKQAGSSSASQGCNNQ
Experimental: as §1

[23] = target: T23, MARK4 (Homo sapiens, UniProt Q96L34)
T23 construct: purchased Carna Biosciences
T23 sequence (Q96L34 whole entry): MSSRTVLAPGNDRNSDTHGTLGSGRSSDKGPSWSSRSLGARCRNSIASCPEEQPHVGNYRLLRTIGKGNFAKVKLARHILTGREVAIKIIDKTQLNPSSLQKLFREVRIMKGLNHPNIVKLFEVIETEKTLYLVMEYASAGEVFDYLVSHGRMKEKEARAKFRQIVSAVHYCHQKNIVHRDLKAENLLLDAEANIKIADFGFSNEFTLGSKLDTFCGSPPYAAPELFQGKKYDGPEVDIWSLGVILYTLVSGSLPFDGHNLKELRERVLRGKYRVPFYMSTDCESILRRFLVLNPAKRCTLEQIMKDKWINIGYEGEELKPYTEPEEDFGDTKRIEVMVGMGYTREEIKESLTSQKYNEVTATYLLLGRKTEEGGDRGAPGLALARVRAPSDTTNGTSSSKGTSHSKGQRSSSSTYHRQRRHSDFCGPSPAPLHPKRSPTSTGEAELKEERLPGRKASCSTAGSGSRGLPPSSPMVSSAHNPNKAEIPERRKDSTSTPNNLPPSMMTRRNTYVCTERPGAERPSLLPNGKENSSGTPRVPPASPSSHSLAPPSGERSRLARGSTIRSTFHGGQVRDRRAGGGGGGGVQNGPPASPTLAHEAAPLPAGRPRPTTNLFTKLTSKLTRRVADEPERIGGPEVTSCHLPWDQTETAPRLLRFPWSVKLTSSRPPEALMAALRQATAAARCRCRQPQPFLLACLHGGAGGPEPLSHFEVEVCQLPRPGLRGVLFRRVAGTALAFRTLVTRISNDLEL
Experimental: as §1

[24] = target: T24, MELK (Homo sapiens, UniProt Q14680)
T24 construct: purchased Carna Biosciences
Experimental: as §1

[25] = target: T25, MET[Y1235D] (Homo sapiens, UniProt P08581, Y1235D)
T25 construct: purchased Carna Biosciences
Experimental: as §1

[26] = target: T26, MLK1 (Homo sapiens, UniProt P80192)
T26 construct: purchased Carna Biosciences
Experimental: as §1

[27] = target: T27, NEK2 (Homo sapiens, UniProt P51955)
T27 construct: purchased Carna Biosciences
Experimental: as §1

[28] = target: T28, NEK6 (Homo sapiens, UniProt Q9HC98)
T28 construct: purchased Carna Biosciences
Experimental: as §1

[29] = target: T29, NEK7 (Homo sapiens, UniProt Q8TDX7)
T29 construct: purchased Carna Biosciences
Experimental: as §1

[30] = target: T30, PDK1 (Homo sapiens, UniProt O15530)
T30 construct: purchased Carna Biosciences
Experimental: as §1

[31] = target: T31, PHKG2 (Homo sapiens, UniProt P15735)
T31 construct: purchased Carna Biosciences
Experimental: as §1

[32] = target: T32, PKCz (Homo sapiens, UniProt Q05513)
T32 construct: purchased Carna Biosciences
Experimental: as §1

[33] = target: T33, PKN1 (Homo sapiens, UniProt Q16512)
T33 construct: purchased Carna Biosciences
Experimental: as §1

[34] = target: T34, PLK4 (Homo sapiens, UniProt O00444)
T34 construct: purchased Carna Biosciences
Experimental: as §1

[35] = target: T35, RON (Homo sapiens, UniProt Q04912)
T35 construct: purchased Carna Biosciences
Experimental: as §1

[36] = target: T36, ROS (Homo sapiens, UniProt P08922)
T36 construct: purchased Carna Biosciences
Experimental: as §1

[37] = target: T37, SGK3 (Homo sapiens, UniProt Q96BR1)
T37 construct: purchased Carna Biosciences
T37 sequence (Q96BR1 whole entry): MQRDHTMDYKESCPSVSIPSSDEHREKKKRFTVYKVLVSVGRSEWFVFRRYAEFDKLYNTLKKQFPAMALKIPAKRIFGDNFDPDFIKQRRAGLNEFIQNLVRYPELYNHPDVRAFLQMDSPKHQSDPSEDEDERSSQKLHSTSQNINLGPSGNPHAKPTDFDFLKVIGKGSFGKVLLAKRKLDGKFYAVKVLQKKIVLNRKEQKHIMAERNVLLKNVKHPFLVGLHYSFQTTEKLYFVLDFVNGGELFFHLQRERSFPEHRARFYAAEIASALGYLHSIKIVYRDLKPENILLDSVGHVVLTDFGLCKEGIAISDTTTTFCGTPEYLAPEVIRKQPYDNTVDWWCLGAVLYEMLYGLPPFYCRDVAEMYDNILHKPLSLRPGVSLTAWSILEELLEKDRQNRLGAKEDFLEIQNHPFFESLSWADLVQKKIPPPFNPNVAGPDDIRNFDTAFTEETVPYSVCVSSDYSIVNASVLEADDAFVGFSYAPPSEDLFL
Experimental: as §1

[38] = target: T38, TIE2 (Homo sapiens, UniProt Q02763)
T38 construct: purchased Carna Biosciences
Experimental: as §1

[39] = target: T39, TSSK2 (Homo sapiens, UniProt Q96PF2)
T39 construct: purchased Carna Biosciences
Experimental: as §1

[40] = target: T40, TXK (Homo sapiens, UniProt P42681)
T40 construct: purchased Carna Biosciences
Experimental: as §1

[41] = target: T41, WNK1 (Homo sapiens, UniProt Q9H4A3)
T41 construct: purchased Carna Biosciences
Experimental: as §1

[42] = target: T42, ZAP70 (Homo sapiens, UniProt P43403)
T42 construct: purchased Carna Biosciences
Experimental: as §1

[43] = target: T43, p70S6Kb (Homo sapiens, UniProt Q9UBS0)
T43 construct: purchased Carna Biosciences
Experimental: as §1

CC[C@H](Nc1nc(NCc2cnc(C)cc2C)c2ncn(C(C)C)c2n1)[C@@H](C)O [Fadraciclib, 2-pentanol, 3-[[6-[[(4,6-dimethyl-3-pyridinyl)methyl]amino]-9-(1-methylethyl)-9Hpurin-2-yl]amino]-, (2R,3S)]
inhibition at 1 µM [1]: -12.7 ± 0.3% | inhibition at 1 µM [2]: -13 ± 0.1% | inhibition at 1 µM [3]: -0.6% | inhibition at 1 µM [4]: -11.1 ± 0.1% | inhibition at 1 µM [5]: 6.6 ± 0.3% | inhibition at 1 µM [6]: -1.9 ± 0.1% | inhibition at 1 µM [7]: 57.9 ± 1.3% | inhibition at 1 µM [8]: 95.9% | inhibition at 1 µM [9]: -12.6 ± 0.5% | inhibition at 1 µM [10]: 1.3% | inhibition at 1 µM [11]: -1.2% | inhibition at 1 µM [12]: 3.4 ± 0.2% | inhibition at 1 µM [13]: -3.6 ± 0.1% | inhibition at 1 µM [14]: 5.1% | inhibition at 1 µM [15]: 3.8% | inhibition at 1 µM [16]: 4.9 ± 0.2% | inhibition at 1 µM [17]: 23.4 ± 2.9% | inhibition at 1 µM [18]: -0.3% | inhibition at 1 µM [19]: 6.3 ± 0.2% | inhibition at 1 µM [20]: -19.3 ± 2.2% | inhibition at 1 µM [21]: -2.6 ± 0.1% | inhibition at 1 µM [22]: -6.1 ± 0.3% | inhibition at 1 µM [23]: -5.1 ± 0.4% | inhibition at 1 µM [24]: 5 ± 0.1% | inhibition at 1 µM [25]: 2.4 ± 0.1% | inhibition at 1 µM [26]: -11.2 ± 0.1% | inhibition at 1 µM [27]: -18.1 ± 0.6% | inhibition at 1 µM [28]: -16.6 ± 0.5% | inhibition at 1 µM [29]: 0.9% | inhibition at 1 µM [30]: -5.4 ± 0.1% | inhibition at 1 µM [31]: -10 ± 0.1% | inhibition at 1 µM [32]: -0.2% | inhibition at 1 µM [33]: -17.7 ± 0.1% | inhibition at 1 µM [34]: -38.5 ± 1% | inhibition at 1 µM [35]: 1.6 ± 0.1% | inhibition at 1 µM [36]: -2 ± 0.1% | inhibition at 1 µM [37]: 6.2 ± 0.1% | inhibition at 1 µM [38]: 2.9 ± 0.2% | inhibition at 1 µM [39]: 0.7% | inhibition at 1 µM [40]: 3.1 ± 0.1% | inhibition at 1 µM [41]: -3.3% | inhibition at 1 µM [42]: -11.6 ± 0.3% | inhibition at 1 µM [43]: 1.9%
